In patent publication US6852710B2, “2-alkoxyestradiol analogs with antiproliferative and antimitotic activity” (Southwest Foundation for Biomedical Research, priority 2001, dated 2005):

Legend:
[1] = test system: NCI/ADR cells; assay: SRB assay, inhibition of proliferation, multidrug resistant line; type: cell-based, human; conditions: for IC50: Homo sapiens, NCI/ADR-RES, NCI/ADR multidrug resistant, 48 hours, n=3 mean±SD; for NCI-ADR/MDA-MB-435 resistance factor: IC50 in NCI/ADR divided by IC50 in MDA-MB-435
Excerpt: The SK-OV-3 cell line was derived from ovarian carcinoma, the MDA-MB-435 and NCI/ADR from breast adenocarcinoma, PC3 and DU 145 from prostate carcinoma and HeLa from cervical carcinoma. The SK-OV-3, HeLa, PC3, and DU 145 and cell lines were obtained from the American Type Culture Collection, 10801 University Blvd., Manassas, Va. 20110-2209. The MDA-MB-435 cell line was obtained from the Lombardi Cancer Center of Georgetown University School of Medicine and the NCI/ADR cell line was obtained from the National Cancer Institute, Fairview Center, Suite 204, 1003 West 7th Street, Frederick, Md. 21701-8531.
(§1) Cells were plated into 96 well plates and allowed to grow and attach for 18-24 hours and then the drugs or vehicle controls were added to the wells. Each data point represents the mean of three experiments, each of which consisted of three replicates within an experiment. The cells were incubated with the drugs for 48 hours and then the cellular protein was fixed and quantified using the sulforhodamine B (SRB) assay. The absorbance of the dye is linear with respect to both cell protein and cell number (Skehan, P.; Storeng, R.; Scudiero, D., Monks; A., McMahon, J.; Vistica, D., Warren, J. T.; Bokesch, H., Kenney, S.; and Boyd, M. R., “New colorimetric cytotoxicity assay for anticancer-drug screening”, J. Natl. Cancer Inst, 82, 1107-1112 (1990)). The effects of the drugs were compared to vehicle controls and the data plotted as percent of control vs. log of drug concentration.
(§2) The IC50 is defined as the drug concentration required to inhibit cell proliferation 50% and is calculated from the linear portion of the log concentration response curve.
(§3) The IC50 values for inhibition of proliferation were calculated from the log dose response curve (n=3, mean±SD).
The effects of the analogs on a multi-drug resistant cell line were also studied. The NCI/ADR cell line is resistant to many chemotherapeutic agents by virtue of its high expression of the drug efflux pump P-glycoprotein. The NCI/ADR cell line was obtained from the National Cancer Institute, Fairview Center, Suite 204, 1003 West 7th Street, Frederick, Md. 21701-8531.
The IC50 values for inhibition of proliferation were calculated from the dose-response curves. The values represent the mean of 3 experiments ±SD. Resistance factors were calculated by dividing the IC50 of the resistant cell line, NCI/ADR, by the IC50 in a drug sensitive cell line, MDA-MB-435.

[2] = test system: HeLa cells; assay: SRB assay, inhibition of proliferation; type: cell-based; conditions: Homo sapiens, 48 hours, n=3 mean±SD
Protocol: (§4) The 4 analogs of 2-ME2 set forth in Table 1 were tested for antiproliferative activity against 6 human tumor cell lines. The SK-OV-3 cell line was derived from ovarian carcinoma, the MDA-MB-435 and NCI/ADR from breast adenocarcinoma, PC3 and DU 145 from prostate carcinoma and HeLa from cervical carcinoma. The SK-OV-3, HeLa, PC3, and DU 145 and cell lines were obtained from the American Type Culture Collection, 10801 University Blvd., Manassas, Va. 20110-2209. The MDA-MB-435 cell line was obtained from the Lombardi Cancer Center of Georgetown University School of Medicine and the NCI/ADR cell line was obtained from the National Cancer Institute, Fairview Center, Suite 204, 1003 West 7th Street, Frederick, Md. 21701-8531.
as §1, §2, §3

[3] = test system: PC3 cells; assay: SRB assay, inhibition of proliferation; type: cell-based; conditions: Homo sapiens, PC-3; PC3, 48 hours, n=3 mean±SD
Protocol: as §4, §1, §2, §3

[4] = test system: SK-OV-3 cells; assay: SRB assay, inhibition of proliferation; type: cell-based; conditions: Homo sapiens; SK-OV-3, 48 hours, n=3 mean±SD
Protocol: as §4, §1, §2, §3

[5] = test system: DU 145 cells; assay: SRB assay, inhibition of proliferation; type: cell-based, human; conditions: for IC50: Homo sapiens, DU 145, 48 hours, n=3 mean±SD; for potency relative to 2-ME2: DU 145 cell line
Protocol: as §4, §1, §2, §3

[6] = test system: MDA-MB-435 cells; assay: SRB assay, inhibition of proliferation; type: cell-based, human; conditions: for IC50: Homo sapiens, MDA-MB-435, 48 hours, n=3 mean±SD
Protocol: as §4, §1, §2, §3

[7] = test system: Human Umbilical Vein Endothelial Cells (HUVEC); assay: HUVEC proliferation (SRB assay); type: cell-based; conditions: for IC50: Homo sapiens, HUVEC, SRB assay; for potency relative to 2-ME2, HUVEC proliferation: in words
Excerpt: FIG. 2 illustrates the effects of compounds on Human Umbilical Vein Endothelial Cells (HUVEC) proliferation. The SRB assay was used to construct the dose response curves of the agents in HUVEC cells. n=3±SD;
Two in vitro assays were used to detect the potential for antiangiogenic activity of the analogs. One assay tested the ability of the analogs to inhibit the cellular proliferation of endothelial cells as shown below (Table 4). The ability of the analogs to inhibit the proliferation of endothelial cells was tested and compared to the effects of 2-ME2. Drugs that have antiangiogenic activity inhibit the proliferation of endothelial cells.

[8] = test system: Human Umbilical Vein Endothelial Cells (HUVEC); assay: HUVEC invasion, Matrigel invasion chambers; type: cell-based; conditions: for IC50: Homo sapiens, HUVEC, Matrigel, 24 hours
Excerpt: FIG. 3 illustrates the effects of compounds on Human Umbilical Vein Endothelial Cells (HUVEC) cell invasion. Becton-Dickinson (BD) Biocoat® Matrigel® invasion chambers were used to construct dose response curves of the compounds for invasion of HUVECs. n=3±SD;
A second assay was also used to evaluate the analogs for potential antiangiogenic activity. The complex process of endothelial cell invasion and migration are key events during angiogenesis. The ability of compounds to inhibit the invasion and migration of endothelial cells through a biological membrane matrix was evaluated. Specifically, the ability of the 2-ME2 analogs, 15-dehydro-2-ME2, 14-dehydro-2-ME2 and 2-ME2-15α,16α to inhibit the invasion and migration of human umbilical vein endothelial cells (HUVEC) through Matrigel® basement membrane material and a PET membrane with 8 μm pores was evaluated. HUVECs were obtained from BioWhittaker and were used during passages of 2 to 6. BD Biocoat® Matrigel® invasion chambers were used for the assays. These modified Boyden chambers have a PET membrane with 8 μm pores that have been coated with Matrigel®. The membrane separates the upper chamber from the lower chamber. HUVECs were plated into the top chamber in media containing 0.1% bovine serum albumin with either a test compound or vehicle and allowed to invade and migrate through pores for 24 hours. The media in the lower chamber contained the chemoattractant, 10% fetal bovine, serum. Following the incubation period the cells on the top of the membrane were removed with a cotton swab and the cells that had migrated through the pores to the lower surface of the membrane were stained with hematoxylin and eosin and counted microscopically. Experiments were conducted in duplicate and the numbers of cells that migrated were counted in 10 microscope fields per transwell chamber. The data are expressed as percent of vehicle control invasion. Dose response curves were generated and are shown in FIG. 3 and the IC50s for inhibition of HUVEC invasion were determined and are presented above in Table 4. All of the 2-ME2 analogs inhibited HUVEC invasion.

[9] = test system: MDA-MB-435 breast cancer xenograft; assay: MDA-MB-435 breast cancer xenograft model; type: in vivo, mice; conditions: for tumor growth delay: intraperitoneally daily for 30 days, time for median to reach tumor burden of 1500 mg vs control; for antitumor effect compared with 2-ME2: tumor burden versus time
Protocol: FIG. 4 illustrates the effects of compounds in an MDA-MB-435 breast cancer xenograft model. The data are the means of the groups ±SEM. Statistical significance (P<0.05) is indicated by an asterisk;
The analogs were tested for antitumor activity using an MDA-MB-435 breast cancer xenograft model. Tumor fragments of MDA-MB-435 (30 mg) were implanted subcutaneously into female athymic NCr-nu mice (SWF-1) weighing approximately 24 g. The tumor fragments were harvested from nude mice hosts. Animal weight and tumor dimensions were measured twice weekly with calipers and tumor weights estimated using 2-dimensional measurements of length and width and the formula [1×(w)^2]/2. When the tumors reached an approximate size equivalent to 175 mg (13 days after implantation) the mice were randomized to treatment or control groups and treatments were begun. The compounds were administered intraperitoneally daily for 30 days on the basis of individual animal body weights. Treatment groups contained 10 mice and the vehicle treated control group consisted of 20 mice. The mean tumor burdens were plotted for each treatment group and compared to controls. The means of the tumor burden data were analyzed for differences using a one-sided Student's t-test, with a P<0.05 considered to be significant difference. Tumor growth delay, the difference between the time for the median of each group (treatment and control) to reach a tumor burden of 1500 mg was calculated.

[10] = test system: 6 human tumor cell lines; assay: SRB antiproliferative assay, panel of tumor cell lines; type: cell-based; conditions: for potency compared with 2-ME2, tumor cell lines: in words, 15-dehydro-2-ME2: MDA-MB-435, NCI/ADR, PC3, HeLa and SK-OV-3
Protocol: as §4, §1, §2

COc1cc2c(cc1O)CCC1C2CC[C@@]2(C)C1CC[C@@H]2O (stereo partly drawn) [2-ME2, 2-Methoxyestradiol, reference compound]
IC50 [1]: 380 ± 10 nM | NCI-ADR/MDA-MB-435 resistance factor [1]: 0.28 | IC50 [2]: 450 ± 40 nM | IC50 [3]: 2220 ± 150 nM | IC50 [4]: 1790 ± 240 nM | IC50 [5]: 4260 ± 950 nM | IC50 [6]: 1380 ± 100 nM | IC50 [7]: 700 ± 110 nM | IC50 [8]: 1990 ± 390 nM

COc1cc2c(cc1O)CCC1C2CC[C@@]2(C)C1[C@H]1OC(C)(C)O[C@H]1[C@@H]2O (stereo partly drawn) [2-ME2-15α, 16α, 2-Methoxy-3,15α,16α,17β-tetrahydroxyestra-1,3,5(10)-triene 15,16-acetonide]
IC50 [1]: 4210 ± 600 nM | NCI-ADR/MDA-MB-435 resistance factor [1]: 1.30 | IC50 [2]: 2980 ± 240 nM | IC50 [3]: 5130 ± 1530 nM | IC50 [4]: 5160 ± 990 nM | IC50 [5]: 6780 ± 620 nM | IC50 [6]: 3240 ± 350 nM | potency relative to 2-ME2, HUVEC proliferation [7]: less potent | IC50 [7]: 11900 ± 2170 nM | potency relative to 2-ME2 in inhibiting HUVEC invasion [8]: less potent | IC50 [8]: 16000 ± 1980 nM | tumor growth delay [9]: 11.3 days | antitumor effect compared with 2-ME2 [9]: superior to 2-ME2 | potency compared with 2-ME2, tumor cell lines [10]: generally less potent than 2-ME2

COc1cc2c(cc1O)CC=C1[C@@H]2CC[C@]2(C)[C@@H](O)CC[C@@H]12 [7-dehydro-2-ME2, 2-Methoxyestra-1,3,5(10), 7-tetraen-3,17β-diol]
IC50 [1]: 2540 ± 440 nM | NCI-ADR/MDA-MB-435 resistance factor [1]: 1.29 | IC50 [4]: 4490 ± 180 nM | IC50 [6]: 1970 ± 400 nM | potency compared with 2-ME2 ([6]; MDA-MB-435 cell line, in words): almost equipotent | potency relative to 2-ME2, HUVEC proliferation [7]: less potent | IC50 [7]: 4390 ± 370 nM | potency compared with 2-ME2, tumor cell lines [10]: generally less potent than 2-ME2

COc1cc2c(cc1O)CC[C@H]1C3=CC[C@H](O)[C@@]3(C)CC[C@H]21 [14-dehydro-2-ME2, 2-Methoxyestra-1,3,5(10), 14-tetraen-3,17β-diol]
IC50 [1]: 56 ± 10 nM | NCI-ADR/MDA-MB-435 resistance factor [1]: 1.0 | IC50 [2]: 50 ± 20 nM | IC50 [3]: 350 ± 90 nM | IC50 [4]: 150 ± 70 nM | potency relative to 2-ME2 [5]: 2.7 fold | IC50 [5]: 1580 ± 810 nM | IC50 [6]: 56 ± 2 nM | potency relative to 2-ME2, HUVEC proliferation [7]: more potent than 2-ME2 | IC50 [7]: 49 nM | potency relative to 2-ME2 in inhibiting HUVEC invasion [8]: more than 6 times | IC50 [8]: 300 ± 20 nM | tumor growth delay [9]: 10.0 days | antitumor effect compared with 2-ME2 [9]: superior to 2-ME2 | potency relative to 2-ME2 ([10]; 5 of the 6 cell lines tested): 6-24 fold

COc1cc2c(cc1O)CC[C@@H]1[C@@H]2CC[C@]2(C)[C@@H](O)C=C[C@@H]12 [15-dehydro-2-ME2, 2-Methoxyestra-1,3,5(10), 15-tetraen-3,17β-diol]
IC50 [1]: 490 ± 60 nM | NCI-ADR/MDA-MB-435 resistance factor [1]: 0.57 | IC50 [2]: 430 ± 80 nM | IC50 [3]: 1820 ± 980 nM | IC50 [4]: 1370 ± 260 nM | potency relative to 2-ME2 [5]: over three times more potent | IC50 [5]: 1250 ± 320 nM | IC50 [6]: 860 ± 110 nM | potency relative to 2-ME2, HUVEC proliferation [7]: equipotent with the parental compound | IC50 [7]: 720 ± 20 nM | potency relative to 2-ME2 in inhibiting HUVEC invasion [8]: equipotent with 2-ME2 | IC50 [8]: 2070 ± 80 nM | tumor growth delay [9]: 7.5 days | days with statistically significant differences between control and treated tumors ([9]; one-sided Student's t-test, P<0.05): days 16-26 and day 36 | antitumor effect compared with 2-ME2 [9]: superior to 2-ME2 | potency compared with 2-ME2, tumor cell lines [10]: approximately equal in potency to 2-ME2

CC(=O)O[C@H]1C(=O)[C@@]2(C)[C@H]([C@H](OC(=O)c3ccccc3)[C@]3(O)C[C@H](OC(=O)[C@H](O)[C@@H](NC(=O)c4ccccc4)c4ccccc4)C(C)=C1C3(C)C)[C@]1(OC(C)=O)CO[C@@H]1C[C@@H]2O [Taxol ®, reference compound]
IC50 [1]: 4460 ± 610 nM | NCI-ADR/MDA-MB-435 resistance factor [1]: 2218.91 | IC50 [6]: 2.01 ± 0.3 nM

CC[C@]1(O)C[C@@H]2CN(CCc3c([nH]c4ccccc34)[C@@](C(=O)OC)(c3cc4c(cc3OC)N(C)[C@H]3[C@@](O)(C(=O)OC)[C@H](OC(C)=O)[C@]5(CC)C=CCN6CC[C@]43[C@@H]65)C2)C1 [Vinblastine, reference compound]
IC50 [1]: 430 ± 70 nM | NCI-ADR/MDA-MB-435 resistance factor [1]: 139.61 | NCI-ADR/MDA-MB-435 resistance factor ([1]; listed as vinblastine): 140 | IC50 [6]: 3.08 ± 0.09 nM
